According to patent publication US8426138B2 (priority 2006, dated 2013):

Key:
β2-adrenergic receptor [1] = biological target: T1, β2-adrenergic receptor (Homo sapiens, UniProt P07550); assay type: cell-based; details: for outcome in high-throughput screen of kinase/phosphatase inhibitor library: library at 3 uM, 384-well plate, duplicate
T1 construct: expressed in transfected cells; host or cells: C2C12 myoblasts (retroviral transduction)

β2-adrenergic receptor [2] = biological target: T1, β2-adrenergic receptor; assay type: cell-based; details: compound applied 30 min before stimulation with 10 uM isoproterenol
Experimental: Assays and cell preparation. […] LysoTracker Red and Texas Red-labeled transferrin were purchased from Molecular Probes. The Kinase/Phosphatase Inhibitor Library was purchased from BIOMOL, and the Mechanistic and Diversity Compound Libraries were provided by the Developmental Therapeutics Program of the National Cancer Institute. Cells were plated and grown to confluency in 96-well white tissue culture dishes (Corning Costar), in 100 μl of growth media. Dose-response curves were generated by adding the respective ligand to the media and incubating for 2 h at 37° C. […] At the end of the described incubation time, Gal-Screen reagent (Buffer B formulation, Applied Biosystems) was used to assay for β-galactosidase activity, according to manufacturer's protocol; media was aspirated from the plate, and 50 μl (or 25 μl for 384-well plates, without prior media aspiration) of Gal-Screen substrate diluted in lysis buffer was added to each well.

[3] = biological target: Angiotensin II receptor 1a (AT1a) (Mus musculus, UniProt P29754); details: 2 hr
Description: Plasmids. […] Other FYVE domains were generated similarly by RT-PCR^˜. […] To generate a β2AR-eYFP-α construct, the eYFP-α fragment was subcloned into the β2AR-ωplasmid using Xhol and HindIII. The Angiotensin receptor 1a was derived by RT-PCR from C57/BI6 mouse brain RNA using primers for the entire coding sequence, minus the stop codon; it was cloned N-terminally to eYFP-α or ω with MfeI and XhoI. […] Finally, to generate fusion proteins with β-arrestin, the full coding sequence of human β-arrestin B2 was PCR amplified from a cDNA clone and inserted into the Mfel-XhoI sites of the ω and eYFP-α vectors.
Assays and cell preparation. […] LysoTracker Red and Texas Red-labeled transferrin were purchased from Molecular Probes. The Kinase/Phosphatase Inhibitor Library was purchased from BIOMOL, and the Mechanistic and Diversity Compound Libraries were provided by the Developmental Therapeutics Program of the National Cancer Institute. Cells were plated and grown to confluency in 96-well white tissue culture dishes (Corning Costar), in 100 μl of growth media. Dose-response curves were generated by adding the respective ligand to the media and incubating for 2 h at 37° C. […]

T1 sequence (P07550 whole entry, species assumed): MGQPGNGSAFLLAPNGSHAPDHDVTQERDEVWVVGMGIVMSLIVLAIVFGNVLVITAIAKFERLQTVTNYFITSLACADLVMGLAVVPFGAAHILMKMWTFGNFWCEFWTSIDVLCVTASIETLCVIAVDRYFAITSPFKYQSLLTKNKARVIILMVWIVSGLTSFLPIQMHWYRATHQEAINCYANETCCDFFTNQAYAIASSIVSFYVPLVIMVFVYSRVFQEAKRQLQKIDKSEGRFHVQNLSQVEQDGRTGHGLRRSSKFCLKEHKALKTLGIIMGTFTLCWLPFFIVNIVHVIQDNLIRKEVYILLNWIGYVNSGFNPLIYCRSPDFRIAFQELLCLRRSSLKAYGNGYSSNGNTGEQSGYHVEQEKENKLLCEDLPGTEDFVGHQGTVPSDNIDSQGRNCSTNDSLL

O=CN/C=C/c1cc(O)ccc1O [erbstatin]
outcome in high-throughput screen of kinase/phosphatase inhibitor library (β2-adrenergic receptor [1]): inhibitors of internalization

CN[C@@H]1C[C@H]2O[C@@](C)([C@@H]1OC)n1c3ccccc3c3c4c(c5c6ccccc6n2c5c31)C(=O)NC4 [staurosporine]
outcome in high-throughput screen of kinase/phosphatase inhibitor library (β2-adrenergic receptor [1]): inhibitors of internalization

COC[C@H]1OC(=O)c2coc3c2[C@@]1(C)C1=C(C3=O)[C@@H]2CCC(=O)[C@@]2(C)C[C@H]1OC(C)=O [wortmannin]
inhibition of activation (β2-adrenergic receptor [2]): approximately 50%
inhibition, internalization assay (β2-adrenergic receptor [1]): approximately 90%

angiotensin II
increase in activity, internalization assay [3]: 4 fold
increase in enzyme activity, arrestin-binding activation assay [3]: 8.5 fold
